Laboratory results published in the NIST ThermoML archive (doi:10.1016/j.jct.2008.02.020).

Conditions: Liquid, Buoyancy - hydrostatic balance with magnetic suspension - one sinker

Brc1ccccc1 [bromobenzene]
Conditions	mass density [kg/m3]
248.15 K, 99.7 kPa	1554.49
248.15 K, 1231.4 kPa	1555.37
248.15 K, 2075.4 kPa	1556.04
248.15 K, 4196.2 kPa	1557.7
248.15 K, 5951 kPa	1559.05
248.15 K, 8068.3 kPa	1560.67
248.15 K, 10015 kPa	1562.11
248.15 K, 11952 kPa	1563.58
248.15 K, 13995 kPa	1565.09
248.15 K, 15940 kPa	1566.53
248.15 K, 18145 kPa	1568.12
248.15 K, 19946 kPa	1569.42
248.15 K, 21965 kPa	1570.86
248.15 K, 24136 kPa	1572.41
248.15 K, 25865 kPa	1573.62
248.15 K, 27917 kPa	1575.05
248.15 K, 29850 kPa	1576.39
273.15 K, 100.51 kPa	1520.56
273.15 K, 1116.3 kPa	1521.45
273.15 K, 2128.1 kPa	1522.34
273.15 K, 4045.8 kPa	1524.03
273.15 K, 5967.3 kPa	1525.66
273.15 K, 8142.8 kPa	1527.52
273.15 K, 10020 kPa	1529.11
273.15 K, 11896 kPa	1530.68
273.15 K, 13922 kPa	1532.35
273.15 K, 16083 kPa	1534.13
273.15 K, 18195 kPa	1535.83
273.15 K, 20035 kPa	1537.31
273.15 K, 21829 kPa	1538.75
273.15 K, 23856 kPa	1540.34
273.15 K, 25976 kPa	1542.02
273.15 K, 28098 kPa	1543.65
273.15 K, 29947 kPa	1545.09
293.15 K, 101.93 kPa	1493.56
293.15 K, 1239.7 kPa	1494.68
293.15 K, 2010.7 kPa	1495.41
293.15 K, 4059.7 kPa	1497.37
293.15 K, 6007.9 kPa	1499.22
293.15 K, 8079.8 kPa	1501.16
293.15 K, 10001 kPa	1502.94
293.15 K, 11960 kPa	1504.73
293.15 K, 14169 kPa	1506.73
293.15 K, 15879 kPa	1508.27
293.15 K, 17960 kPa	1510.11
293.15 K, 19999 kPa	1511.9
293.15 K, 21880 kPa	1513.53
293.15 K, 24122 kPa	1515.46
293.15 K, 26141 kPa	1517.17
293.15 K, 28060 kPa	1518.79
293.15 K, 29993 kPa	1520.42
313.15 K, 102.54 kPa	1466.55
313.15 K, 2000.8 kPa	1468.59
313.15 K, 4011 kPa	1470.71
313.15 K, 6189.6 kPa	1473
313.15 K, 7991.6 kPa	1474.86
313.15 K, 10089 kPa	1477.01
313.15 K, 12143 kPa	1479.06
313.15 K, 14015 kPa	1480.93
313.15 K, 16087 kPa	1482.94
313.15 K, 18047 kPa	1484.85
313.15 K, 20004 kPa	1486.73
313.15 K, 22154 kPa	1488.76
313.15 K, 23944 kPa	1490.45
313.15 K, 26100 kPa	1492.42
313.15 K, 28042 kPa	1494.21
313.15 K, 29906 kPa	1495.9
333.15 K, 100.42 kPa	1439.38
333.15 K, 1115 kPa	1440.6
333.15 K, 1943.4 kPa	1441.57
333.15 K, 4094.5 kPa	1444.1
333.15 K, 6114.2 kPa	1446.44
333.15 K, 7927.8 kPa	1448.51
333.15 K, 10022 kPa	1450.84
333.15 K, 11958 kPa	1453
333.15 K, 13999 kPa	1455.24
333.15 K, 16049 kPa	1457.44
333.15 K, 18156 kPa	1459.68
333.15 K, 20008 kPa	1461.63
333.15 K, 22158 kPa	1463.84
333.15 K, 24130 kPa	1465.86
333.15 K, 26094 kPa	1467.85
333.15 K, 28018 kPa	1469.76
333.15 K, 29890 kPa	1471.61
353.15 K, 99.8 kPa	1411.94
353.15 K, 1173.8 kPa	1413.37
353.15 K, 1944.3 kPa	1414.39
353.15 K, 3949.8 kPa	1417.01
353.15 K, 5968.9 kPa	1419.61
353.15 K, 7990.5 kPa	1422.16
353.15 K, 9916 kPa	1424.56
353.15 K, 11987 kPa	1427.09
353.15 K, 14135 kPa	1429.67
353.15 K, 15921 kPa	1431.8
353.15 K, 18146 kPa	1434.39
353.15 K, 19874 kPa	1436.37
353.15 K, 22180 kPa	1438.99
353.15 K, 23964 kPa	1440.98
353.15 K, 26085 kPa	1443.32
353.15 K, 28122 kPa	1445.53
353.15 K, 29956 kPa	1447.5
373.15 K, 98.54 kPa	1384.07
373.15 K, 1150.1 kPa	1385.64
373.15 K, 2174.4 kPa	1387.16
373.15 K, 3917.7 kPa	1389.71
373.15 K, 6182.4 kPa	1392.96
373.15 K, 8042.7 kPa	1395.57
373.15 K, 10003 kPa	1398.28
373.15 K, 12008 kPa	1400.99
373.15 K, 14086 kPa	1403.76
373.15 K, 15913 kPa	1406.15
373.15 K, 18066 kPa	1408.91
373.15 K, 19882 kPa	1411.21
373.15 K, 22174 kPa	1414.05
373.15 K, 24053 kPa	1416.33
373.15 K, 25897 kPa	1418.54
373.15 K, 27711 kPa	1420.7
373.15 K, 29531 kPa	1422.85
393.15 K, 97.33 kPa	1355.66
393.15 K, 1226 kPa	1357.56
393.15 K, 2181.2 kPa	1359.15
393.15 K, 3965.3 kPa	1362.08
393.15 K, 6075.4 kPa	1365.47
393.15 K, 8146.9 kPa	1368.75
393.15 K, 9937.3 kPa	1371.46
393.15 K, 11970 kPa	1374.53
393.15 K, 14177 kPa	1377.78
393.15 K, 15956 kPa	1380.34
393.15 K, 18164 kPa	1383.47
393.15 K, 20147 kPa	1386.23
393.15 K, 22176 kPa	1389
393.15 K, 23982 kPa	1391.42
393.15 K, 26170 kPa	1394.3
393.15 K, 28005 kPa	1396.7
393.15 K, 29542 kPa	1398.68
413.15 K, 99.45 kPa	1326.55
413.15 K, 1202.8 kPa	1328.65
413.15 K, 2177.1 kPa	1330.51
413.15 K, 3915.5 kPa	1333.73
413.15 K, 6185.5 kPa	1337.83
413.15 K, 8176.1 kPa	1341.33
413.15 K, 10032 kPa	1344.48
413.15 K, 12104 kPa	1348.01
413.15 K, 13992 kPa	1351.03
413.15 K, 15890 kPa	1354.12
413.15 K, 18162 kPa	1357.68
413.15 K, 19933 kPa	1360.41
413.15 K, 22150 kPa	1363.74
413.15 K, 24133 kPa	1366.66
413.15 K, 26039 kPa	1369.41
413.15 K, 27898 kPa	1372.06
413.15 K, 29858 kPa	1374.81
433.15 K, 1243.8 kPa	1299.09
433.15 K, 1973.3 kPa	1300.66
433.15 K, 4075.9 kPa	1305.09
433.15 K, 6197.8 kPa	1309.43
433.15 K, 7981.5 kPa	1312.95
433.15 K, 10020 kPa	1316.91
433.15 K, 12073 kPa	1320.75
433.15 K, 14034 kPa	1324.34
433.15 K, 15960 kPa	1327.77
433.15 K, 17921 kPa	1331.19
433.15 K, 19992 kPa	1334.75
433.15 K, 21950 kPa	1337.95
433.15 K, 24018 kPa	1341.31
433.15 K, 26143 kPa	1344.68
433.15 K, 28052 kPa	1347.64
433.15 K, 29864 kPa	1350.43
453.15 K, 1135.4 kPa	1268.14
453.15 K, 1982.5 kPa	1270.24
453.15 K, 4017.7 kPa	1275.16
453.15 K, 6189 kPa	1280.22
453.15 K, 7994.2 kPa	1284.28
453.15 K, 10139 kPa	1288.98
453.15 K, 12157 kPa	1293.2
453.15 K, 13982 kPa	1296.94
453.15 K, 16134 kPa	1301.21
453.15 K, 18122 kPa	1305.05
453.15 K, 19974 kPa	1308.56
453.15 K, 22141 kPa	1312.52
453.15 K, 24115 kPa	1316.05
453.15 K, 26121 kPa	1319.56
453.15 K, 28034 kPa	1322.83
453.15 K, 29912 kPa	1325.98
473.15 K, 1191.2 kPa	1236.28
473.15 K, 2175.4 kPa	1239.12
473.15 K, 4131.5 kPa	1244.58
473.15 K, 5988.1 kPa	1249.54
473.15 K, 8161.4 kPa	1255.13
473.15 K, 10165 kPa	1260.08
473.15 K, 12166 kPa	1264.85
473.15 K, 14163 kPa	1269.43
473.15 K, 16125 kPa	1273.8
473.15 K, 18167 kPa	1278.2
473.15 K, 20146 kPa	1282.35
473.15 K, 22123 kPa	1286.36
473.15 K, 24157 kPa	1290.39
473.15 K, 26075 kPa	1294.08
473.15 K, 28020 kPa	1297.73
473.15 K, 29860 kPa	1301.12
